Results published in ChEMBL document CHEMBL5223096, “Potential therapeutic targets from Mycobacterium abscessus (Mab): recently reported efforts towards the discovery of novel antibacterial agents to treat Mab infections” (RSC Med Chem, 2022).
In brackets after ≈: the same amount, converted by molar mass. Numbered stars: 1 amine (or outer) side, 2 acyl side, 3 side chain; on linkers, the order of the positions; unused ones are H or OH. Bridge positions count the residues as written; N and C are the ends. Square brackets hold non-standard residues; d marks the D form. Peptide text beside a SMILES is read from it. * marks the point of attachment. Phe(3R-OH) = O=C([C@@H](N[*:1])[C@H](O[*:3])c1ccccc1)[*:2]; NMeTrp(4-OMe) = CN[C@@H](Cc1c[nH]c2cccc(OC)c12)C(=O)O; NMeaIle = CC[C@@H](C)[C@H](NC)C(=O)O; NMe2Val = CC(C)[C@@H](C(=O)*)N(C)C; NMeT = CN[C@H](C(=O)O)[C@@H](C)O; NMeL = CN[C@@H](CC(C)C)C(=O)O; NMeV = CN[C@H](C(=O)O)C(C)C

What was measured:
[1] = tested on: Mycobacteroides abscessus; test: Antimycobacterial activity against Mycobacterium abscessus; format: functional
[2] = Binding affinity to Mycobacterium abscessus ClpC1 by SPR assay; parameters: species or system Mycobacteroides abscessus
[3] = tested on: Mycobacterium tuberculosis; test: Antimycobacterial activity against Mycobacterium tuberculosis; format: functional

For Cc1cc(C)c2cc(C(=O)NC3CCCCCC3)[nH]c2c1, the MIC [1] was 0.06 µM (≈ 0.0171 µg/mL).

For CC(C)COc1nn(-c2ccc(Oc3ccccc3)cc2)c(=O)o1, the MIC50 [1] was 33 µM (≈ 10.8 µg/mL).

Work on C/C=C/C[C@@H]1NC(=O)[C@H](CC(C)C)N2C(=O)[C@H](C[C@H](C)[C@H]2O)N(C)C(=O)[C@H](C)NC(=O)[C@H](Cc2ccc(O)c([N+](=O)[O-])c2)NC(=O)[C@H](CC(C)C)N(C)C(=O)[C@H](Cc2cn(C(C)(C)C3CO3)c3ccccc23)NC1=O (some centres not stated) yielded an MIC [1] of 0.42 µM (≈ 0.438 µg/mL) and a Kd [2] of 100 nM.

Work on CC[C@@H](C)[C@@H](C(=O)N[C@@H]1C(=O)N(C)[C@@H]([C@@H](C)O)C(=O)N[C@@H](C(C)C)C(=O)N(C)[C@@H](CC(C)C)C(=O)N[C@@H](C(C)C)C(=O)N(C)[C@@H](C(C)C)C(=O)N(C)[C@@H](Cc2c[nH]c3cccc(OC)c23)C(=O)N[C@@H](C(C)C)C(=O)N[C@@H]([C@H](O)c2ccccc2)C(=O)N[C@@H](C(C)C)C(=O)O[C@@H]1C)N(C)C(=O)[C@@H](NC(=O)[C@H](C(C)C)N(C)C)C(C)C (NMe2Val-V[NMeaIle]T[NMeT]V[NMeL]V[NMeV][NMeTrp(4-OMe)]V[Phe(3R-OH)]V; ester 3-C) yielded an MIC [3] of 0.16 µM (≈ 0.256 µg/mL) and a Kd [2] of 100 nM.

CCCCCCCCCCCCCCCCOP1(=O)OCCC(C(=O)OC)=C(C)O1 (racemic) gave an MIC50 [1] of 0.37 µM (≈ 0.165 µg/mL).
